In patent US20220363662A1, “COMPOUNDS AS LXR AGONISTS” (Integral Biosciences Privated Limited, priority 2021, published 2022):

Columns and labels:
[1] = target: T1, LXR beta (Homo sapiens, UniProt P55055); test: LXR beta agonist assay (Lanthascreen TR-FRET); format: biochemical; conditions: LXR beta-LBD 5 nM, read-out: LXR-β EC50
T1 construct: 5 μL of 4×LXR beta-LBD was added to each well (final concentration 5 nM); purchased Thermofisher PV4658
T1 sequence (P55055 222-460 limits assumed): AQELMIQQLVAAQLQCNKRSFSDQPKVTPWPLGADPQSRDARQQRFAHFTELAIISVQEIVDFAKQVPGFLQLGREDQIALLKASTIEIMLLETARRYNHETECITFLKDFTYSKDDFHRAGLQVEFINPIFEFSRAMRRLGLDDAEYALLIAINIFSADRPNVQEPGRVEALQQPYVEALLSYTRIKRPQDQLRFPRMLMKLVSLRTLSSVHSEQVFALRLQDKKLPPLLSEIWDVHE
In short: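 TR-FRET coactivator recruitment: 5 nM LXR beta-LBD with 100 nM Fl-D22 peptide and 10 nM Tb-anti-GST antibody (final) in Coregulator Buffer G, 60 min at 22° C, read hourly up to 4 hours. Duplicate three-fold titrations from 30 μM; EC50 by variable-slope nonlinear regression.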

[2] = test system: A549; test: Cell viability assay (resazurin) in A549; format: cell-based; conditions: Homo sapiens, 96 hr exposure
Protocol: (§1) HepG2 (ATCC® HB-8065™), hepatocellular carcinoma, A549 (ATCC® CCL-185™), lung epithelial carcinoma, MCF7 (ATCC® HTB-22™), mammary gland epithelial carcinoma, MDA-MB-231 (ATCC® HTB-26™), TNBC, MiaPaCa-2 (ATCC® CRL-1420™) & Panc-1 (ATCC® CRL-1469™), pancreatic epithelial carcinoma, HCT116 (ATCC® CCL-247™), colon epithelial carcinoma and U87MG (ATCC® HTB-14™), brain epithelial carcinoma cell lines respectively were seeded in the respective medium (DMEM, Cat #10569044 with 10% FBS, Cat #16000044; Gibco for HepG2, A549, MCF7, MDA-MB-231, MiaPaCa-2, Panc-1, HCT116 and MEM, Cat #11095080 with 10% FBS for U87MG). Cells were allowed to grow at 37° C. for 24 hr in 5% CO2 (culture conditions) in a Nuaire incubator (humidified). Serially diluted compounds (100 μl) were added to the culture plate 24 hr later and the cultures were further incubated in culture conditions for 96 hr. Experiment was terminated at the completion of 96 hr exposure to the drug by replacing the medium with 100 μl of 1 mM of resazurin (R7017; Sigma) prepared in culture medium and the plates were further incubated in culture conditions for 4 hr. Fluorescence was then measured using a multimodal plate reader (Biotek Synergy Neo) at an excitation wavelength of 535 nm and emission wavelength of 590 nm to obtain relative fluorescence units. Data analysis was done by subtracting the background fluorescence (only medium blank) value from each reading and then normalizing with the vehicle control (DMSO treated cells) to obtain percent survival/proliferation. Percent survival at different doses was used to calculate IC50 by fitting the curve to the “four-parameter variable slope logistic model” using Prism Graph Pad.

[3] = test system: HepG2; test: Cell viability assay (resazurin) in HepG2; format: cell-based; conditions: Homo sapiens, 96 hr exposure
In short: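 Cells in 10% FBS medium (DMEM; MEM for U87MG) exposed 96 h at 37 °C to serially diluted compound, then 4 h with resazurin (1 mM in medium). Fluorescence (ex 535/em 590 nm) background-subtracted, normalised to DMSO; IC50 by four-parameter variable-slope fit.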

[4] = test system: MCF7; test: Cell viability assay (resazurin) in MCF7; format: cell-based; conditions: Homo sapiens, 96 hr exposure
Protocol: as §1

[5] = test system: MDA-MB-231; test: Cell viability assay (resazurin) in MDA-MB-231; format: cell-based; conditions: Homo sapiens, 96 hr exposure, read-out: MDA_MB-231 Cell IC50
Protocol: as §1

[6] = test system: MiaPaCa-2; test: Cell viability assay (resazurin) in MiaPaCa-2; format: cell-based; conditions: Homo sapiens, MIA PaCa-2; 96 hr exposure
Protocol: (§2) HepG2 (ATCC® HB-8065™), hepatocellular carcinoma, A549 (ATCC® CCL-185™), lung epithelial carcinoma, MCF7 (ATCC® HTB-22™), mammary gland epithelial carcinoma, MDA-MB-231 (ATCC® HTB-26™), TNBC, MiaPaCa-2 (ATCC® CRL-1420™) & Panc-1 (ATCC® CRL-1469™), pancreatic epithelial carcinoma, HCT116 (ATCC® CCL-247™), colon epithelial carcinoma and U87MG (ATCC® HTB-14™), brain epithelial carcinoma cell lines respectively were seeded in the respective medium (DMEM, Cat #10569044 with 10% FBS, Cat #16000044; Gibco for HepG2, A549, MCF7, MDA-MB-231, MiaPaCa-2, Panc-1, HCT116 and MEM, Cat #11095080 with 10% FBS for U87MG). Cells were allowed to grow at 37° C. for 24 hr in 5% CO2 (culture conditions) in a Nuaire incubator (humidified). Serially diluted compounds (100 μl) were added to the culture plate 24 hr later and the cultures were further incubated in culture conditions for 96 hr. […] Fluorescence was then measured using a multimodal plate reader (Biotek Synergy Neo) at an excitation wavelength of 535 nm and emission wavelength of 590 nm to obtain relative fluorescence units. Data analysis was done by subtracting the background fluorescence (only medium blank) value from each reading and then normalizing with the vehicle control (DMSO treated cells) to obtain percent survival/proliferation. […]

[7] = test system: U87MG; test: Cell viability assay (resazurin) in U87MG; format: cell-based; conditions: Homo sapiens, U-87 MG; 96 hr exposure
Protocol: as §2

[8] = test system: mouse splenocytes; test: Mouse splenocyte assay, cytokine release (mIFN-γ ELISA); format: cell-based; conditions: Balb/c splenocytes, CD3e/CD28 and PMA+Ionomycin induced, read-out: Enhancement of mIFN-γ release by activated Mouse Splenocyte, EC50
Protocol: EC50 values of compounds for enhancement of CD3e/CD28 induced mIFNγ release in mouse splenocytes isolated from Balb/c mice and differentiated (Treg) with PMA+Ionomycin. Mouse splenocytes (2*10^5 cells/well) were activated with Anti-mouse CD3e (0.5 μg/mL, coated overnight at 4° C.; Cat #14-0032-82, eBioscience) and then incubated with Anti-mouse CD28 (1 μg/mL soluble; Cat #16-0289-81, eBiosciences). After 48 hr of incubation serial dilutions of compounds (3 fold, 8 point dose response starting at 1 μM) were left for 6-8 hrs at cell culture conditions and then splenocytes were further incubated with PMA (50 ng/mL final concentration) and 1 μg/mL of Ionomycin (final concentration) and incubated under cell culture conditions overnight after which the supernatant was harvested, diluted to 1:50 and ELISA was performed as per the manufacturer's protocol (mIFN-γ kit; Cat #555138 & 550534, BD Biosciences). Plates were read in Biotek plate reader by measuring absorbance at 450 nm.

[9] = test system: mouse splenocytes; test: Mouse splenocytes cytotoxicity assay (CTG); format: cell-based; conditions: Splenocyte, CD3e/CD28 activated Balb/c splenocytes, 72 hr
Protocol: IC50 values to look at cytotoxicity of compounds on CD3e/CD28 induced splenocytes, was determined in mouse splenocytes isolated from Balb/c mice. Mouse splenocytes (2.5×10^5 cells/well/160 μl) were activated with Anti-mouse CD3e (0.5 μg/mL, coated overnight at 4° C.; Cat #14-0032-82, eBiosciences) and then incubated with serial dilutions of compounds (3 fold, 8 point dose response starting at 30 μM) and treated with Anti-mouse CD28 (1 μg/mL soluble; Cat #16-0289-81, eBiosciences). Splenocytes were further incubated under cell culture conditions for 72 hr after which assay was terminated by addition of CTG. Plate was incubated for 15 min at 37° C., 5% CO2 and luminescence was measured.

[10] = target: T2, LXR alpha (Homo sapiens, UniProt Q13133); test: LXR alpha agonist assay (Lanthascreen TR-FRET); format: biochemical; conditions: LXR alpha-LBD 2.5 nM, read-out: LXR-α EC50
T2 construct: 5 μL of 4×LXR alpha-LBD was added to each well (final concentration 2.5 nM); purchased Thermofisher PV4655
T2 sequence (Q13133 209-447 limits assumed): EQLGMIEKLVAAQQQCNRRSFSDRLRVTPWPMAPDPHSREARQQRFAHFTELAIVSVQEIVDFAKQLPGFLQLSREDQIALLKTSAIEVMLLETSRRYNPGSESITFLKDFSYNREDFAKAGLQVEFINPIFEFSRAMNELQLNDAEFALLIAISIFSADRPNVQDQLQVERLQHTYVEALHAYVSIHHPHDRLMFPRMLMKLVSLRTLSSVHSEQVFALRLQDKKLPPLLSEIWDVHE
Protocol: EC50 values of compounds against LXR alpha were determined at Integral BioSciences (India) using Lanthascreen TR-FRET (Thermofisher, Cat #PV4655). Assay was performed in a 20 μL final volume in a Black 384-well plate (Corning, Cat #4511). Dose response curve for the compounds were prepared in duplicates with starting concentration at 30 μM and a three-fold titration was performed. The reaction buffer consisted of TR-FRET Coregulator Buffer H. To the compound dilution, 5 μL of 4×LXR alpha-LBD was added to each well (final concentration 2.5 nM). An equal volume (5 μL) containing 4×Fl-D22/Tb-anti GST antibody (final concentration 250 nM/10 nM) was added to initiate the enzyme reaction and the reaction was incubated for 60 min at 22° C. after which the plates were read using BioTek Plate reader for TR-FRET every hour up to 4 hours.
Analysis was done using the standard curve by non-linear regression, variable slope inhibitor curve fits (Graph-Pad Prism) and EC50's of compounds were determined wherever possible.

[11] = test system: HCT116; test: Cell viability assay (resazurin) in HCT116; format: cell-based; conditions: Homo sapiens, HCT-116; 96 hr exposure
Protocol: as §1

[12] = test system: THP1; test: Cell viability assay in THP1; format: cell-based; conditions: Homo sapiens, THP-1
[13] = test system: ApoE; test: THP-1 Western blotting assay (ApoE); format: cell-based; conditions: 30 μM; for ApoE normalized with Vehicle treated (DMSO) Control: 18 hour, PMA-differentiated THP-1 cells, densitometry, control = 100; for Fold Difference: ApoE vs DMSO control, THP-1 cells
Protocol: THP-1 cells (2×10^6 cells/well) were differentiated with PMA (10 ng/mL) for 24 following which the cells were treated with different concentrations (30 μM and 10 μM) of compound for 18 hour in cell culture conditions (5% CO2, 37° C.). The cells were lysed using 1×RIPA (Cat #9806; Cell Signaling Technologies) buffer with Protease inhibitor (1×) (Cat #P830, Sigma) and sonicated. Whole cell lysate was collected and protein estimation was done using Bradford Reagent. The samples were subjected to SDS PAGE Electrophoresis and the protein bands were transferred onto PVDF membrane using wet transfer. The membrane was further blocked with 5% non-fat dry milk and incubated with primary antibody (ApoE; 1:1000, Cat #D7I9N, ABCA1; 1:1000, Cat #96292S; Cell Signaling Technologies) and secondary antibody (Anti rabbit IgG 1:2000, Cat #7074S, Cell Signaling Technologies). The membrane was then developed using ECL reagent (Ref. 32106, Thermo Fisher Scientific) in a gel doc system. The expression of protein was quantified by densitometry analysis.

Structure (SMILES) | EC50 [1] | IC50 [2] | IC50 [5] | IC50 [9] | EC50 [10] | ApoE normalized with Vehicle treated (DMSO) Control [13] | Fold Difference [13] | further results
CN(C)C(=O)c1ccc(NC2CN(C3CCN(C(=O)C(O)(c4ccccc4)C(F)(F)F)CC3)C2)cc1Cl (stereo not shown) [Compound 1.3, 2-chloro-N,N-dimethyl-4-(1-(1-(3,3,3-trifluoro-2-hydroxy-2-phenylpropanoyl)piperidin-4-yl)azetidin-3-ylamino)benzamide] | 1.12 µM | > 30 µM | > 30 µM |  |  |  |  | IC50 [3]: 13.8 µM; IC50 [4]: > 25.7 µM; IC50 [6]: > 30 µM; IC50 [7]: > 30 µM
O=c1[nH]ccc2cc(N3CCC(C4CCN(S(=O)(=O)c5ccccc5C(F)(F)F)CC4)CC3)cc(Cl)c12 [Compound 1.14, 8-chloro-6-(1′-(2-(trifluoromethyl)phenylsulfonyl)-4,4′-bipiperidin-1-yl)isoquinolin-1(2H)-one] | 2.51 µM |  |  | 22.9 µM |  |  |  | EC50 [8]: 0.05 µM
CC(C)[C@@](O)(C(=O)N1CCC(N2CC(Nc3ccc(C(=O)N(C)C)c(Cl)c3)C2)CC1)C(F)(F)F (single isomer, unassigned) [Compound 1.44] | 10.9 µM | > 30 µM | > 30 µM |  | > 30 µM | 156.5 | 1.57 | IC50 [11]: > 30 µM; IC50 [12]: > 30 µM
CC(C)(C(=O)N1CCC(N2CCN(c3cc(Cl)c4c(=O)[nH]ccc4c3)CC2)CC1)C(F)(F)F [Compound 1.21, 8-chloro-6-(4-(1-(3,3,3-trifluoro-2,2-dimethylpropanoyl)piperidin-4-yl)piperazin-1-yl)isoquinolin-1(2H)-one] |  |  |  | > 30 µM |  |  |  | EC50 [8]: 0.111 µM
CC(C)(C(=O)N1CCC(C2CCN(c3cc(Cl)c4c(=O)[nH]ccc4c3)CC2)CC1)C(F)(F)F [Compound 1.23, 8-chloro-6-(1′-(3,3,3-trifluoro-2,2-dimethylpropanoyl)-4,4′-bipiperidin-1-yl)isoquinolin-1(2H)-one] |  |  |  | 1.5 µM |  |  |  | 
O=c1[nH]ccc2cc(N3CCC(C4CCN(S(=O)(=O)c5ccccc5Cl)CC4)CC3)cc(Cl)c12 [Compound 1.16, 8-chloro-6-(1′-((2-chlorophenyl)sulfonyl)-[4,4′-bipiperidin]-1-yl)isoquinolin-1(2H)-one] |  |  |  | 14.9 µM |  |  |  | 
CC(C)[C@](O)(C(=O)N1CCC(N2CC(Nc3ccc(C(=O)N(C)C)c(Cl)c3)C2)CC1)C(F)(F)F (single isomer, unassigned) [Compound 1.45] | 1.21 µM | > 30 µM | > 30 µM |  | > 30 µM | 132.1 | 1.32 | IC50 [11]: > 30 µM; IC50 [12]: > 30 µM
CN(C)C(=O)c1ccc(NC2CN(C3CCN(C(=O)[C@@](O)(c4ccccc4)C(F)(F)F)CC3)C2)cc1Cl (single isomer, unassigned) [Compound 1.10] | 0.141 µM | > 30 µM | > 30 µM |  | 26.1 µM | 221.8 | 2.22 | IC50 [3]: > 29.6 µM
